Structures can show the parent of a compound that is named as a salt.
Experiments:
THP-1 (AML) cells = test: LSD1 CD11b cellular assay (flow cytometry); type: cell-based; conditions: Homo sapiens, 96 h; CD11b expression in THP-1 (AML) cells, flow cytometry, 4 days incubation; read-out: Cellular IC50
In short: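 THP-1 AML cells treated with serially diluted compound (0.2% DMSO final) for 4 days at 37 °C, 5% CO2. CD11b expression measured by flow cytometry with DAPI staining; IC50 derived from percent CD11b-positive cells versus inhibitor concentration.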

full-length human LSD1 = full-length human LSD1 (Homo sapiens (Human), UniProt O60341); test: In vitro enzyme inhibition assay LSD-1 (TR-FRET); type: biochemical; conditions: TR-FRET, 0.1 nM LSD1, 50 nM H3K4me1-biotin peptide, 2 μM FAD, pH7.3; read-out: LSD1 IC50
Protocol: This assay determines the ability of a test compound to inhibit LSD1 demethylase activity.
The enzymatic assay of LSD1 activity is based on Time Resolved-Fluorescence Resonance Energy Transfer (TR-FRET) detection.
The ability of the compounds disclosed herein to inhibit LSD1 activity was quantified and the respective IC50 value was determined. Table 5 provides the IC50 values of various substituted heterocyclic compounds disclosed herein.

Row | SMILES | IC50 (THP-1 (AML) cells) [nM] | IC50 (full-length human LSD1) [nM]
1 | Cn1cc2cc(-c3cnc(N4CCC(N)CC4)nc3-c3ccc(C#N)cc3)ncc2n1 [Example 73, 4-[2-(4-aminopiperidin-1-yl)-5-(2-methylpyrazolo[3,4-c]pyridin-5-yl)pyrimidin-4-yl]benzonitrile] | 100 to 1000 | < 100
2 | Cc1ccc(-c2nc3cnn(CC4CCNCC4)c3cc2-c2ccc(C#N)cc2)cc1 [Example 14] | < 100 | < 100
3 | N#Cc1ccc(-c2nc(N3CCC4CNCC4CC3)ncc2-c2ccc3scnc3c2)cc1 (centres unmarked) [Example 146, 4-[2-(2,3,3a,4,5,7,8,8a-octahydro-1H-pyrrolo[3,4-d]azepin-6-yl)-5-(1,3-benzothiazol-5-yl)pyrimidin-4-yl]benzonitrile] | < 100 | < 100
4 | Cn1cc(C#Cc2cnc(N3CCC(N)CC3)nc2-c2ccc(C#N)c(F)c2)nn1 [Example 100] | < 100 | < 100
5 | COc1nc(N2CCC(N)CC2)nc(-c2ccc(C#N)cc2)c1-c1ccc2nn(C)cc2c1 [Example 152, 4-[2-(4-aminopiperidin-1-yl)-6-methoxy-5-(2-methyl-2H-indazol-5-yl)pyrimidin-4-yl]benzonitrile] | < 100 | < 100
6 | COc1ccc(-c2nc3ccn(C[C@@H]4CCNC4)c3cc2-c2ccc(C#N)c(F)c2)cc1F [Example 53, 4-{1-[((3R)pyrrolidin-3-yl)methyl]-5-(3-fluoro-4-methoxyphenyl)pyrrolo[3,2-b]pyridin-6-yl}-2-fluorobenzenecarbonitrile HCl salt] | < 100 | < 100
7 | N#Cc1ccc(-n2nc(C(=O)N3CCC[C@@H](N)C3)cc2OCc2cccnc2)cc1 [Example 57, 4-{3-[((3R)-3-Aminopiperidyl)carbonyl]-5-(3-pyridylmethoxy)pyrazolyl}benzenecarbonitrile] | 100 to 1000 | < 100
8 | N#Cc1ccc(-c2nc(N3CCC(N)CC3)ncc2-c2cnn(C3CCOCC3)c2)cc1F [Example 142, 4-[2-(4-aminopiperidin-1-yl)-5-[1-(oxan-4-yl)pyrazol-4-yl]pyrimidin-4-yl]-2-fluorobenzonitrile] | < 100 | < 100
9 | CNc1nc(N2CCC(N)CC2)nc(-c2ccc(C#N)c(F)c2)c1-c1cnc2c(c1)nnn2C [Example 171, 4-[2-(4-aminopiperidin-1-yl)-5-{3-methyl-3H-[1,2,3]triazolo[4,5-b]pyridin-6-yl}-6-(methylamino)pyrimidin-4-yl]-2-fluorobenzonitrile] | < 100 | < 100
10 | Cn1cnc2cc(-c3cnc(N4CCC(N)CC4)nc3-c3ccc(C#N)c(F)c3)cnc21 [Example 136, 4-[2-(4-aminopiperidin-1-yl)-5-(3-methylimidazo[4,5-b]pyridin-6-yl)pyrimidin-4-yl]-2-fluorobenzonitrile] | < 100 | < 100
11 | Cc1ccc(-c2cnc(N3CCC4(CC3)CNC4)nc2-c2ccc(C#N)cc2)cc1 [Example 113, 4-[2-(2,7-diazaspiro[3.5]nonan-7-yl)-5-(4-methylphenyl)pyrimidin-4-yl]benzonitrile] | 100 to 1000 | < 100
12 | Cn1cc2cc(-c3cnc(N4CCC(N)CC4)nc3-c3ccc(C#N)cc3)cnc2n1 [Example 85, 4-[2-(4-aminopiperidin-1-yl)-5-(2-methylpyrazolo[3,4-b]pyridin-5-yl)pyrimidin-4-yl]benzonitrile] | 100 to 1000 | < 100
13 | N#Cc1ccc(-c2nc(NC[C@H]3CCNC3)ncc2-c2ccc(C(F)(F)F)cc2)cc1 [Example 25, 4-(2-{[(3S)-pyrrolidin-3-ylmethyl]amino}-5-[4-(trifluoromethyl)phenyl]pyrimidin-4-yl)benzonitrile] | 100 to 1000 | < 100
14 | Cn1nccc1C#Cc1cnc(N2CCC(N)CC2)nc1-c1ccc(C#N)c(F)c1 [Example 106, 4-[2-(4-aminopiperidin-1-yl)-5-[2-(2-methylpyrazol-3-yl)ethynyl]pyrimidin-4-yl]-2-fluorobenzonitrile] | 100 to 1000 | < 100
15 | Cc1ccc(-c2nc3ccn(CCCN)c3cc2-c2ccc(C#N)cc2)cc1 [Example 12] | 100 to 1000 | < 100
16 | COc1ccc(-c2nc3ccn(C[C@@H]4CCNC4)c3cc2-c2ccc(C#N)cc2)cc1F [Example 50, 4-{1-[((3R)pyrrolidin-3-yl)methyl]-5-(3-fluoro-4-methoxyphenyl)pyrrolo[3,2-b]pyridin-6-yl}benzenecarbonitrile, HCl salt] | < 100 | < 100
17 | N#Cc1ccc(-c2cc3c(ccn3C[C@H]3CCNC3)nc2Cl)cc1 [Example 4, 4-[5-chloro-1-[[(3S)-pyrrolidin-3-yl]methyl]pyrrolo[3,2-b]pyridin-6-yl]benzonitrile] | 1000 to 10000 | 100 to 1000

Row | SMILES | IC50 (THP-1 (AML) cells) [nM] | IC50 (full-length human LSD1) [nM]
18 | Cc1nc2cc(-c3cnc(N4CCC(N)CC4)nc3-c3ccc(C#N)c(F)c3)ccc2n1C [Example 138, 4-[2-(4-aminopiperidin-1-yl)-5-(1,2-dimethylbenzimidazol-5-yl)pyrimidin-4-yl]-2-fluorobenzonitrile] | < 100 | < 100
19 | N#Cc1ccc(-c2cc3c(ccn3C[C@H]3CNCCO3)nc2-c2ccc(F)cc2)cc1 [Example 11, 4-[5-(4-fluorophenyl)-1-[[(2R)-morpholin-2-yl]methyl]pyrrolo[3,2-b]pyridin-6-yl]benzonitrile] | 1000 to 10000 | < 100
20 | Cc1ccc(-c2nc3cnn(CC4CCNC4)c3cc2-c2ccc(C#N)cc2)cc1 (centres unmarked) [Example 13] | < 100 | < 100
21 | Cc1ccc(-c2cnc(OC[C@@H]3CCNC3)nc2-c2ccc(C#N)cc2)cc1 [Example 20, 4-[5-(4-methylphenyl)-2-[(3R)-pyrrolidin-3-ylmethoxy]pyrimidin-4-yl]benzonitrile] | 100 to 1000 | < 100
22 | N#Cc1ccc(-c2nc(N3CCC(N)CC3)ncc2-c2cnn(C3CCOC3)c2)cc1 (centres unmarked) [Example 71, 4-[2-(4-aminopiperidin-1-yl)-5-[1-(oxolan-3-yl)pyrazol-4-yl]pyrimidin-4-yl]benzonitrile] | 100 to 1000 | < 100
23 | Cn1cnc2cc(-c3cnc(N4CCC(N)CC4)nc3-c3ccc(C#N)c(F)c3)ccc21 [Example 87, 4-[2-(4-aminopiperidin-1-yl)-5-(1-methylbenzimidazol-5-yl)pyrimidin-4-yl]-2-fluorobenzonitrile] | < 100 | < 100
24 | COc1ccc(-c2nc3ccn(C[C@H]4CCNC4)c3cc2-c2ccc(C#N)cc2)cc1F [Example 51, 4-{1-[((3S)pyrrolidin-3-y])methyl]-5-(3-fluoro-4-methoxyphenyl)pyrrolo[3,2-b]pyridin-6-yl}benzenecarbonitrile, HCl salt] | < 100 | < 100
25 | Cc1ccc(-c2cc(NCC3CCNCC3)nn2-c2ccc(C#N)cc2)cc1 [Example 46, 4-[5-(4-methylphenyl)-3-(piperidin-4-ylmethylamino)pyrazol-1-yl]benzonitrile] | 100 to 1000 | < 100
26 | Cc1ccc(-c2cnc(N3CC4CNCC(C4)C3)nc2-c2ccc(C#N)cc2)cc1 [Example 119, 4-[2-(3,7-diazabicyclo[3.3.1]nonan-3-yl)-5-(4-methylphenyl)pyrimidin-4-yl]benzonitrile] | 100 to 1000 | < 100
27 | CNc1nc(N2CCC(N)CC2)nc(-c2ccc(C#N)cc2)c1-c1ccc2nn(C)cc2c1 [Example 163, 4-[2-(4-aminopiperidin-1-yl)-5-(2-methyl-2H-indazol-5-yl)-6-(methylamino)-pyrimidin-4-yl]-benzonitrile] | < 100 | < 100
28 | Cc1nn(C)c2ccc(-c3cnc(N4CCC(N)CC4)nc3-c3ccc(C#N)c(F)c3)cc12 [Example 93, 4-[2-(4-aminopiperidin-1-yl)-5-(1,3-dimethylindazol-5-yl)pyrmidin-4-yl]-2-fluorobenzonitrile] | < 100 | < 100
29 | Cn1ncc2nc(-c3cnc(N4CCC(N)CC4)nc3-c3ccc(C#N)cc3)ccc21 [Example 67, 4-[2-(4-aminopiperidin-1-yl)-5-(1-methylpyrazolo[4,3-b]pyridin-5-yl)pyrimidin-4-yl]benzonitrile] | 100 to 1000 | < 100
30 | Cn1cnc2cc(-c3cnc(N4CCC5CNCC5CC4)nc3-c3ccc(C#N)cc3)c(F)c(F)c21 (centres unmarked) [Example 130] | < 100 | < 100
31 | CNc1nc(N2CCC(N)CC2)nc(-c2ccc(C#N)c(F)c2)c1-c1ccc2c(cnn2C)c1 [Example 161, 4-[2-(4-aminopiperidin-1-yl)-5-(l-methyl-1H-indazol-5-yl)-6-(methylamino)pyrimidin-4-yl]-2-fluorobenzonitrile] | < 100 | < 100
32 | N#Cc1ccc(-c2nc(NC[C@H]3CCNC3)ncc2-c2ccc(F)cc2)cc1 [Example 18, 4-[5-(4-fluorophenyl)-2-{[(3S)-pyrrolidin-3-ylmethyl]amino}pyrimidin-4-yl]benzonitrile] | 100 to 1000 | < 100
33 | COc1nc(N2CCC(N)CC2)nc(-c2ccc(C#N)cc2)c1-c1cnc(N(C)C)nc1 [Example 156, 4-[2-(4-aminopiperidin-1-yl)-5-[2-(dimethylamino)pyrimidin-5-yl]-6-methoxypyrimidin-4-yl]benzonitrile] | < 100 | < 100
34 | COc1nc(N2CCC(N)CC2)nc(-c2ccc(C#N)c(F)c2)c1-c1ccc2cn(C)nc2c1 [Example 150, 4-[2-(4-aminopiperidin-1-yl)-6-methoxy-5-(2-methyl-2H-indazol-6-yl)pyrimidin-4-yl]-2-fluorobenzonitrile] | < 100 | < 100

From patent US10131664B2 (Celgene Quanticel Research, Inc., priority 2013, dated 2018)
